Assay results as given in US20250177408A1, “INHIBITOR OF INTERACTION BETWEEN YAP/TAZ AND TEAD, PREPARATION THEREOF, PHARMACEUTICAL COMPOSITION THEREOF AND USE THEREOF” (ETERN BIOPHARMA (SHANGHAI) CO., LTD., priority 2022, published 2025).
Counter-ions that a name gives are not always drawn. Like-named read-outs stand apart in the source and are kept apart here.

Key:
MSTO-211H cells = experiment: Cell proliferation inhibition experiment (CellTiter-Glo); assay type: cell-based; conditions: 96 hours, read-out: Inhibitory activity of each compound on the proliferation of MSTO-211H cells (grades of IC50 values)
Experimental: In this example, the intracellular ATP was quantitatively determined by the CellTiter-Glo luminescence cell viability detection kit to detect the number of living cells in the culture.
Step 1: MSTO-211H (ATCC, CRL-2081TM) or NCI-H2052 (ATCC, CRL-5915TM) cells were inoculated in a 96-well plate at a density of 1500 cells per well with a volume of 100 μL per well, and the cells were incubated overnight in a 37° C., 5% carbon dioxide incubator. The culture medium used was RPMI1640 medium (GIBCO-A10491-01)+10% FBS (GIBCO-10099141C)+1% penicillin/streptomycin (Pen/Strep) (GIBCO-15070-063).
Step 2: The cells were treated with the compounds to be tested. The compounds to be tested were 3-fold diluted, and a total of 9 concentration gradients were set up; a certain volume of DMSO or the compounds to be tested was added to each well, respectively, and 2 replicates were set up for each concentration, and the final concentration of DMSO was controlled to be no higher than 0.5%. The cells were incubated for 96 hours in a 37° C., 5% carbon dioxide incubator.
Step 3: Cell viability was detected in the control group and treatment group using CellTiter-Glo Luminescent Cell Viability Assay kit (Promega, G7570). 50 μL of CellTiter-Glo was added to each well, mixed well, and incubated at room temperature for 10 minutes. The signal was read using En Vision® Multilabel Plate Reader (Perkin Elmer).
(§1) The inhibition percentage (%) was calculated using the following formula: […]
Using Graphpad Prism software, the IC50 values of the compounds inhibiting the CTG signal of cell proliferation activity was calculated.

[1] = molecular target: YAP-TEAD protein interaction (His-TEAD1 (209-426) protein, Bio-YAP peptide (60-100)) (Homo sapiens, UniProt P28347); experiment: YAP-TEAD protein interaction HTRF experiment; assay type: binding; conditions: His-TEAD1 (209-426) 10 nM, Bio-YAP peptide 50 nM, read-out: Activity of each compound in blocking YAP-TEAD protein interaction (grades of IC50 values)
Experimental: In this example, the YAP-TEAD protein interaction HTRF experiment was used to detect the activity of each compound in blocking the YAP-TEAD protein interaction.
The experiment was carried out according to the following operation steps:
Step 1: His-TEAD1 (209-426) protein was added to a 384-well detection white plate to a final concentration of 10 nM, and buffer was used as the background signal well. The compounds to be tested were subjected to 3-fold dilution and a total of 10 concentration gradients were set up, and each diluted solution was mixed well. A certain volume of the compound to be tested was added to each well separately, 2 replicates were set for each concentration, and the final concentration of DMSO was controlled at 1%. Incubation was carried out at room temperature for 20 minutes. The amino acid sequence of TAED1 (209-426) used in this step is shown in SEQ ID NO: 1:
After mixing evenly, the mixture was incubated at room temperature for 10 minutes.
Step 3: Anti-His-Eu cryptate gold and streptavidin-XL665 were diluted according to the instructions and mixed in equal proportions. A certain volume of the detection reagent was added to the well, and the mixture was incubated at room temperature for 1 hour.
Step 4: The signal was detected using an Envision (Perkin Elmer) microplate reader at an excitation wavelength of 320 nm and emission wavelengths of 665 nm and 620 nm.
Step 5: The signal was calculated based on the ratio of Em665/Em620*10000.
as §1
The half-maximal inhibitory concentration (IC50) values were calculated using GraphPad Prism software.

Sequence of YAP-TEAD protein interaction (His-TEAD1 (209-426) protein, Bio-YAP peptide (60-100)) (P28347 209-426): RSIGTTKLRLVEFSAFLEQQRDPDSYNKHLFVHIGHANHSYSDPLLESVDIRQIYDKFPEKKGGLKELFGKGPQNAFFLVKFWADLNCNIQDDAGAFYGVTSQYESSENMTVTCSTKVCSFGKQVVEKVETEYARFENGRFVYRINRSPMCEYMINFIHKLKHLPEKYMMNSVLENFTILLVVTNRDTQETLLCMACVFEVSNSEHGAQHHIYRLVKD

Compound	IC50 [1] [nM]	IC50 (MSTO-211H cells) [nM]	IC50 (MSTO-211H cells; Homo sapiens) [nM]
NC(=O)c1cc2c(c(F)c1-c1c(Cl)c(F)cc3c1C[C@](c1ccccc1)([C@@H]1CCCN1)O3)Oc1ccnnc1O2 [Compound 103, (S)-7-((S)-5-Chloro-6-fluoro-2-phenyl-2-((S)-pyrrolidin-2-yl)-2,3-dihydrobenzofuran-4-yl)-6-fluorobenzo[5,6][1,4]dioxo[2,3-c]pyridazine-8-carboxamide]	< 50	500 to 5000	–
CCn1ncc2c(c1=O)Oc1cc(C(N)=O)c(-c3c(Cl)c(F)cc4c3C[C@](c3ccccc3)([C@@H]3CCCN3)O4)c(F)c1O2 (atropisomer, axis not shown) [Compound 110, (S)-8-((S)-5-Chloro-6-fluoro-2-phenyl-2-((S)-pyrrolidin-2-yl)-2,3-dihydrobenzofuran-4-yl)-3-ethyl-9-fluoro-4-oxo-3,4-dihydrobenzo[5,6][1,4]dioxo [2,3-d]pyridazine-7-carboxamide]	< 50	–	200 to 500
Cn1cc2c(n1)COc1c-2cc(C(N)=O)c(-c2c(Cl)c(F)cc3c2C[C@](c2ccccc2)([C@@H]2CC4(CC4)CN2)O3)c1F (atropisomer, axis not shown) [Compound 9, (S)-7-((S)-5-Chloro-6-fluoro-2-phenyl-2-((S)-5-azaspiro[2.4]heptan-6-yl)-2,3-dihydrobenzofuran-4-yl)-6-fluoro-2-methyl-2,4-dihydrochromeno[3,4-c]pyrazole-8-carboxamide hydrochloride]	< 50	–	< 200
COCCCNC[C@@]1(c2ccccc2)Cc2c(cc(F)c(Cl)c2-c2c(C(N)=O)cc3c(c2F)OCc2nn(C)cc2-3)O1 (atropisomer, axis not shown) [Compound 83, (S)-7-((S)-5-Chloro-6-fluoro-2-(((3-methoxypropyl)amino)methyl)-2-phenyl-2,3-dihydrobenzofuran-4-yl)-6-fluoro-2-methyl-2,4-dihydrochromeno[3,4-c]pyrazole-8-carboxamide formate]	–	–	< 200
NC(=O)c1cc2c(c(F)c1-c1c(Cl)c(F)cc3c1C[C@](c1ccccc1)([C@@H]1CCCN1)O3)Oc1ncccc1C2O (stereo partly drawn) [Compound 104, (S)-8-((S)-5-Chloro-6-fluoro-2-phenyl-2-((S)-pyrrolidin-2-yl)-2,3-dihydrobenzofuran-4-yl)-9-fluoro-5-hydroxy-5H-benzo[2,3-b]pyridine-7-carboxamide]	< 50	–	200 to 500
NC(=O)c1cc2c(c(F)c1-c1c(Cl)c(F)cc3c1C[C@](c1ccccc1)([C@@H]1CCCN1)O3)Oc1c(cnn(CC(F)F)c1=O)O2 (atropisomer, axis not shown) [Compound 120, (S)-8-((S)-5-Chloro-6-fluoro-2-phenyl-2-((S)-pyrrolidin-2-yl)-2,3-dihydrobenzofuran-4-yl)-9-fluoro-2-(2,2-difluoroethyl)-1-oxo-1,2-dihydrobenzo[5,6][1,4]dioxo[2,3-d]pyridazine-7-carboxamide]	< 50	–	< 200
(S)-8-((S)-5-Chloro-6-fluoro-2-phenyl-2-((S)-pyrrolidin-2-yl)-2,3-dihydrobenzofuran-4-yl)-9-fluoro-3-methyl-4-oxo-3,4-dihydrobenzo[5,6][1,4]dioxo[2,3-d]pyrimidine-7-carboxamide [Compound 127]	< 50	200 to 500	–
NC(=O)c1cc2c(c(F)c1-c1c(Cl)c(F)cc3c1C[C@](c1ccccc1)([C@@H]1CCCN1)O3)OCc1n[nH]nc1-2 (atropisomer, axis not shown) [Compound 7, (S)-7-((S)-5-Chloro-6-fluoro-2-phenyl-2-((S)-pyrrolidin-2-yl)-2,3-dihydrobenzofuran-4-yl)-6-fluoro-2,4-dihydrochromeno[3,4-d][1,2,3]triazole-8-carboxamide]	< 50	–	200 to 500
NC(=O)c1cc2c(c(F)c1-c1c(Cl)c(F)cc3c1C[C@](c1ccccc1)([C@@H]1CCCN1)O3)Oc1cnn(C3CC3)c(=O)c1O2 [Compound 112, (S)-8-((S)-5-Chloro-6-fluoro-2-phenyl-2-((S)-pyrrolidin-2-yl)-2,3-dihydrobenzofuran-4-yl)-3-cyclopropyl-9-fluoro-4-oxo-3,4-dihydrobenzo[5,6][1,4]dioxo[2,3-d]pyridazine-7-carboxamide]	< 50	200 to 500	–

Second part, led by results:

IC50 [1] [nM]	Compound	IC50 (MSTO-211H cells) [nM]	IC50 (MSTO-211H cells; Homo sapiens) [nM]
< 50	[2H]C1([2H])CC[C@]([2H])([C@@]2(c3ccccc3)Cc3c(cc(F)c(Cl)c3-c3c(C(=O)NC)cc4c(c3F)Oc3c(cnn(CC(F)(F)F)c3=O)O4)O2)N1 (atropisomer, axis not shown) [Compound 157, (S)-8-((S)-5-Chloro-6-fluoro-2-phenyl-2-((S)-pyrrolidin-2-yl-2,5,5-d3)-2,3-dihydrobenzofuran-4-yl)-9-fluoro-N-methyl-1-oxo-2-(2,2,2-trifluoroethyl)-1,2-dihydroxybenzo[5,6][1,4] dioxo[2,3-d]pyridazine-7-carboxamide]	–	< 200
< 50	[2H]C1([2H])CC[C@]([2H])([C@@]2(c3ccccc3)Cc3c(cc(F)c(Cl)c3-c3c(C(=O)NC)cc4c(c3F)Oc3c(cnn(CCC(F)(F)F)c3=O)O4)O2)N1 (atropisomer, axis not shown) [Compound 159, (S)-8-((S)-5-Chloro-6-fluoro-2-phenyl-2-((S)-pyrrolidin-2-yl-2,5,5-d3)-2,3-dihydrobenzofuran-4-yl)-9-fluoro-N-methyl-1-oxo-2-(3,3,3-trifluoropropyl)-1,2-dihydroxybenzo [5,6][1,4]dioxo [2,3-d]pyridazine-7-carboxamide]	–	< 200
< 50	NC(=O)c1cc2c(c(F)c1-c1c(Cl)c(F)cc3c1C[C@](c1ccccc1)([C@@H]1CCCN1)O3)Oc1ncn(C3CC3)c(=O)c1O2 (atropisomer, axis not shown) [Compound 140]	–	< 200
< 50	[2H]C([2H])([2H])n1ncc2c(c1=O)Oc1c(cc(C(=O)NC)c(-c3c(Cl)c(F)cc4c3C[C@](c3ccccc3)([C@@H]3CCCN3)O4)c1F)O2 (atropisomer, axis not shown) [Compound 151, (S)-8-((S)-5-Chloro-6-fluoro-2-phenyl-2-((S)-pyrrolidin-2-yl)-2,3-dihydrobenzofuran-4-yl)-9-fluoro-N-methyl-2-(methyl-d3)-1-oxo-1,2-dihydrobenzo[5,6][1,4]dioxo [2,3-d]pyridazine-7-carboxamide]	–	< 200
< 50	NC(=O)c1cc2c(c(F)c1-c1c(Cl)c(F)cc3c1C[C@](c1ccccc1)([C@@H]1CCCN1)O3)Oc1cnn(CCC(F)(F)F)c(=O)c1O2 (atropisomer, axis not shown) [Compound 134, (S)-8-((S)-5-Chloro-6-fluoro-2-phenyl-2-((S)-pyrrolidin-2-yl)-2,3-dihydrobenzofuran-4-yl)-9-fluoro-3-(3,3,3-trifluoropropyl)-4-oxo-3,4-dihydrobenzo[5,6][1,4]dioxo[2,3-d]pyridazine-7-carboxamide]	–	500 to 5000
< 50	CNC(=O)c1cc2c(c(F)c1-c1c(Cl)c(F)cc3c1C[C@](c1ccccc1)([C@@H]1CCCN1)O3)Oc1c(cnn(CC(F)(F)F)c1=O)O2 (atropisomer, axis not shown) [Compound 144]	–	< 200
< 50	NC(=O)c1cc2c(c(F)c1-c1c(Cl)c(F)cc3c1C[C@](c1ccccc1)([C@@H]1CCCN1)O3)Oc1nn(C3CC3)c(=O)cc1O2 (atropisomer, axis not shown) [Compound 128, (S)-8-((S)-5-Chloro-6-fluoro-2-phenyl-2-((S)-pyrrolidin-2-yl)-2,3-dihydrobenzofuran-4-yl)-2-cyclopropyl-9-fluoro-3-oxo-2,3-hydrobenzo[5,6][1,4]dioxo [2,3-c]pyridazine-7-carboxamide]	–	< 200
